Reference: PubChem BioAssay AID1963873 (Molecular Pharmacology Branch, DTP, NCI, 2024)

Test system: 276233-004-R-J1-PDC KRAS spheroids with HUVEC/MSC, viability
Test: Anticancer human tumor 276233-004-R-J1-PDC patient-derived colon adenocarcinoma cell line growth inhibition [KRAS2]
Conditions: for viability, T/C: stronger effect = lower value
In short: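 Combination screen of spheroid viability in tumor-cell co-cultures with endothelial (HUVEC) and mesenchymal stem cell stroma. Each agent was tested in half-log dilutions, topping at clinical Cmax or at 10 microM without a known Cmax.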

[1] = curve of first compound, second compound 0.1 µM
[2] = curve of first compound, second compound 0.316 µM
[3] = curve of first compound, second compound 1 µM
[4] = curve of first compound, second compound 3.16 µM
[5] = curve of first compound, second compound 10 µM
[6] = second compound 0.1 µM, first compound 0.00316 µM
[7] = second compound 0.1 µM, first compound 0.01 µM
[8] = second compound 0.1 µM, first compound 0.0316 µM
[9] = second compound 0.1 µM, first compound 0.1 µM
[10] = second compound 0.1 µM, first compound 0.316 µM
[11] = second compound 0.1 µM, first compound 1 µM
[12] = second compound 0.316 µM, first compound 0.00316 µM
[13] = second compound 0.316 µM, first compound 0.01 µM
[14] = second compound 0.316 µM, first compound 0.0316 µM
[15] = second compound 0.316 µM, first compound 0.1 µM
[16] = second compound 0.316 µM, first compound 0.316 µM
[17] = second compound 0.316 µM, first compound 1 µM
[18] = second compound 1 µM, first compound 0.00316 µM
[19] = second compound 1 µM, first compound 0.01 µM
[20] = second compound 1 µM, first compound 0.0316 µM
[21] = second compound 1 µM, first compound 0.1 µM
[22] = second compound 1 µM, first compound 0.316 µM
[23] = second compound 1 µM, first compound 1 µM
[24] = second compound 3.16 µM, first compound 0.00316 µM
[25] = second compound 3.16 µM, first compound 0.01 µM
[26] = second compound 3.16 µM, first compound 0.0316 µM
[27] = second compound 3.16 µM, first compound 0.1 µM
[28] = second compound 3.16 µM, first compound 0.316 µM
[29] = second compound 3.16 µM, first compound 1 µM
[30] = second compound 10 µM, first compound 0.01 µM
[31] = second compound 10 µM, first compound 0.0316 µM
[32] = second compound 10 µM, first compound 0.1 µM
[33] = second compound 10 µM, first compound 0.316 µM
[34] = second compound 10 µM, first compound 1 µM
[35] = curve of first compound, second compound 0.0316 µM
[36] = second compound 0.0316 µM, first compound 0.0316 µM
[37] = second compound 0.0316 µM, first compound 0.1 µM
[38] = second compound 0.0316 µM, first compound 0.316 µM
[39] = second compound 0.0316 µM, first compound 1 µM
[40] = second compound 0.1 µM, first compound 3.16 µM
[41] = second compound 0.1 µM, first compound 10 µM
[42] = second compound 0.316 µM, first compound 3.16 µM
[43] = second compound 0.316 µM, first compound 10 µM
[44] = second compound 1 µM, first compound 3.16 µM
[45] = second compound 1 µM, first compound 10 µM
[46] = second compound 3.16 µM, first compound 3.16 µM
[47] = second compound 3.16 µM, first compound 10 µM
[48] = second compound 10 µM, first compound 3.16 µM
[49] = second compound 10 µM, first compound 10 µM
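Further: cells exposed to agents for seven days before viability read.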
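Wherever viability, T/C is given: 100% = DMSO vehicle control wells and lower values mean fewer viable cells.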

Row | SMILES | IC50 [1] | IC50 [2] | IC50 [3] | IC50 [4] | viability, T/C [8] | viability, T/C [9] | viability, T/C [10] | viability, T/C [11] | viability, T/C [14] | viability, T/C [15] | viability, T/C [16] | viability, T/C [17] | viability, T/C [20] | viability, T/C [21] | viability, T/C [22] | viability, T/C [23] | viability, T/C [26] | viability, T/C [27] | viability, T/C [28] | viability, T/C [29] | further results
1 | CCN1CCN(Cc2ccc(Nc3ncc(F)c(-c4cc(F)c5nc(C)n(C(C)C)c5c4)n3)nc2)CC1 + COc1cc2nc(C)nc(NC(C)c3cc(N)cc(C(F)(F)F)c3)c2cc1OC1CCOC1 | > 1 µM | > 1 µM | > 1 µM | > 1 µM | 88.7% | 84.5% | 91.5% | 115% | 82.4% | 107% | 98.8% | 86.8% | 101% | 80.2% | 96.9% | 102% | 74.1% | 81.1% | 89.4% | 74.3% | IC50 [5]: < 0.00316 µM; viability, T/C [6]: 89.2%; viability, T/C [7]: 98.1%; viability, T/C [12]: 110%; viability, T/C [13]: 80.9%; viability, T/C [18]: 105%; viability, T/C [19]: 88%; viability, T/C [24]: 82.2%; viability, T/C [25]: 96.5%; viability, T/C (second compound 10 µM, first compound 0.00316 µM): 47.1%; viability, T/C [30]: 44.4%; viability, T/C [31]: 26%; viability, T/C [32]: 19.7%; viability, T/C [33]: 4.33%; viability, T/C [34]: 2.22%
2 | CCNC(=O)CC1N=C(c2ccc(Cl)cc2)c2cc(OC)ccc2-n2c(C)nnc21 (stereo unspecified) + C=CC(=O)N1CCN(c2nc(OCC3CCCN3C)nc3c2CCN(c2cccc4cccc(C)c24)C3)CC1CC#N | > 10 µM | > 10 µM | > 10 µM | 0.189 µM | 95.1% | 81.2% | 85.6% | 60.2% | 94.8% | 83.1% | 83.3% | 76.2% | 80.5% | 66.1% | 56.2% | 57.6% | 60.3% | 59.8% | 42% | 33.7% | IC50 [35]: > 10 µM; viability, T/C [36]: 94.8%; viability, T/C [37]: 80.9%; viability, T/C [38]: 63.6%; viability, T/C [39]: 57.1%; viability, T/C (second compound 0.0316 µM, first compound 3.16 µM): 68.6%; viability, T/C (second compound 0.0316 µM, first compound 10 µM): 62%; viability, T/C [40]: 59.5%; viability, T/C [41]: 62.3%; viability, T/C [42]: 65.4%; viability, T/C [43]: 63.6%; viability, T/C [44]: 56.6%; viability, T/C [45]: 61.2%; viability, T/C [46]: 36.4%; viability, T/C [47]: 38.7%
3 | CC(C)n1nc(-c2ccc3oc(N)nc3c2)c2c(N)ncnc21 | – | – | – | – | – | – | – | – | – | – | – | – | – | – | – | – | – | – | – | – | viability, T/C (compound 0.000316 µM): 98.1% [middle of 5 runs]; viability, T/C (compound 0.001 µM): 86.1% [middle of 5 runs]; viability, T/C (compound 0.01 µM): 66.5% [middle of 5 runs]; viability, T/C (compound 0.0316 µM): 60.8% [middle of 5 runs]; viability, T/C (compound 0.1 µM): 59.6% [middle of 5 runs]; IC50 (curve of compound): > 0.1 µM
4 | COC(=O)c1ccc2c(C(=Nc3ccc(N(C)C(=O)CN4CCN(C)CC4)cc3)c3ccccc3)c(O)[nH]c2c1 + COc1cc2nc(C)nc(NC(C)c3cc(N)cc(C(F)(F)F)c3)c2cc1OC1CCOC1 | > 10 µM | > 10 µM | > 10 µM | 2.75 µM | 96.3% | 77% | 80.4% | 83.1% | 94.1% | 71.5% | 74.2% | 65.3% | 78.6% | 80.9% | 70% | 70.2% | 72.1% | 66.6% | 58.7% | 51.5% | IC50 [5]: < 0.0316 µM; viability, T/C [40]: 70%; viability, T/C [41]: 83.7%; viability, T/C [42]: 70%; viability, T/C [43]: 74.2%; viability, T/C [44]: 62.9%; viability, T/C [45]: 61.6%; viability, T/C [46]: 54.7%; viability, T/C [47]: 6.87%; viability, T/C [31]: 24.1%; viability, T/C [32]: 25.9%; viability, T/C [33]: 30.9%; viability, T/C [34]: 20.9%; viability, T/C [48]: 13.8%; viability, T/C [49]: 1.87%
5 | CC1OCC2(CCN(c3cnc(Sc4ccnc(N)c4Cl)c(N)n3)CC2)C1N (stereo unspecified) + COc1cc2nc(C)nc(NC(C)c3cc(N)cc(C(F)(F)F)c3)c2cc1OC1CCOC1 | > 10 µM | > 10 µM | > 10 µM | 5.25 µM | 93.6% | 100% | 70.5% | 78% | 109% | 79% | 78.5% | 62.7% | 91.5% | 86.9% | 81.4% | 80.4% | 85.8% | 77.8% | 71.8% | 70% | IC50 [5]: 0.0411 µM; viability, T/C [40]: 62.9%; viability, T/C [41]: 51.7%; viability, T/C [42]: 61.8%; viability, T/C [43]: 57.2%; viability, T/C [44]: 55.1%; viability, T/C [45]: 50.8%; viability, T/C [46]: 54%; viability, T/C [47]: 42.7%; viability, T/C [31]: 52.4%; viability, T/C [32]: 44.1%; viability, T/C [33]: 34.4%; viability, T/C [34]: 33.9%; viability, T/C [48]: 24.2%; viability, T/C [49]: 18.7%
6 | CCN1CCN(Cc2ccc(Nc3ncc(F)c(-c4cc(F)c5nc(C)n(C(C)C)c5c4)n3)nc2)CC1 + C=CC(=O)N1CCN(c2nc(OCC3CCCN3C)nc3c2CCN(c2cccc4cccc(C)c24)C3)CC1CC#N | > 1 µM | > 1 µM | > 1 µM | 0.0596 µM | 86% | 81% | 97% | 96.4% | 77.4% | 86% | 78% | 90.7% | 96.5% | 87.4% | 66.2% | 110% | 65.9% | 39.6% | 43.5% | 26.5% | IC50 [35]: > 1 µM; viability, T/C (second compound 0.0316 µM, first compound 0.00316 µM): 102%; viability, T/C (second compound 0.0316 µM, first compound 0.01 µM): 87%; viability, T/C [36]: 87.1%; viability, T/C [37]: 69.2%; viability, T/C [38]: 95.5%; viability, T/C [39]: 112%; viability, T/C [6]: 109%; viability, T/C [7]: 86.4%; viability, T/C [12]: 95.1%; viability, T/C [13]: 83.7%; viability, T/C [18]: 81.4%; viability, T/C [19]: 83.7%; viability, T/C [24]: 56.5%; viability, T/C [25]: 65.8%
7 | CC(=O)OC12COC1CC(O)C1(C)C(=O)C(O)C3=C(C)C(OC(=O)C(O)C(NC(=O)OC(C)(C)C)c4ccccc4)CC(O)(C(OC(=O)c4ccccc4)C21)C3(C)C (stereo unspecified) + C=CC(=O)N1CCN(c2nc(=O)n(-c3c(C)ccnc3C(C)C)c3nc(-c4c(O)cccc4F)c(F)cc23)C(C)C1 | > 3.16 µM | > 3.16 µM | > 3.16 µM | > 3.16 µM | 96.5% | 80.4% | 77.4% | 86.3% | 109% | 79.4% | 70.5% | 90.1% | 85.3% | 71.6% | 75% | 88% | 84.9% | 77.8% | 92.8% | 79.5% | IC50 [5]: > 3.16 µM; viability, T/C [7]: 87%; viability, T/C [40]: 97.8%; viability, T/C [13]: 100%; viability, T/C [42]: 89.5%; viability, T/C [19]: 90.7%; viability, T/C [44]: 99.2%; viability, T/C [25]: 95.5%; viability, T/C [46]: 90.2%; viability, T/C [30]: 79.2%; viability, T/C [31]: 72.2%; viability, T/C [32]: 97.6%; viability, T/C [33]: 64.2%; viability, T/C [34]: 103%; viability, T/C [48]: 129%
